According to patent publication US20120053165A1, “Novel Phenyl Imidazoles and Phenyl Triazoles As Gamma-Secretase Modulators” (Pfizer Inc., priority 2009, published 2012):
Structures can show the parent of a compound that is named as a salt.

What follows are compounds tested on production of amyloid beta protein Aβ(1-42) in human WT-APP overexpressing CHO cells. Conditions: Homo sapiens, CHO, read-out: Aβ 42 IC50.
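Also: Aβ(1-42) released into conditioned medium captured by ELISA after roughly 24 h compound exposure, vehicle and inhibitor controls defining maximal and minimal inhibition.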
Description: Cell-Based γ-Secretase Assay with ELISA Readout
The ability of compounds to modulate production of amyloid beta protein Aβ(1-42) was determined using human WT-APP overexpressing CHO cells. Cells were plated at 22,000 cells/100 μL well in 96 well tissue culture treated, clear plates (Falcon) in DMEM/F12 based medium and incubated for 24 hours at 37° C. […] Compounds were added in fresh medium to achieve 1% final DMSO. Appropriate vehicle and inhibitor controls were added to obtain maximum and minimum inhibition values for the assay before the plates were incubated for about 24 hours at 37° C.
Coating of ELISA assay plates was initiated by addition of 50 μL/well of an in house Aβ(1-42) specific antibody at (4 μg/mL) in 0.1 M NaHCO3 (pH 9.0) into black 384-well Maxisorp® plates (Nunc) and incubated overnight at 4° C. […] Ambient temperature incubation was allowed to proceed for a minimum of two hours before washing 2×100 μL with Wash Buffer (Dulbecco's PBS, 0.05% Tween 20). Assay Buffer (Dulbecco's PBS, 1.0% BSA (Sigma A7030), 0.05% Tween 20) 20 μL/well is then added.
After incubation overnight at 37° C., 5% CO2, 40 μL (in duplicate) of experimental conditioned media are transferred into wells of the blocked ELISA plates containing the capture antibody, followed by overnight incubation at 4° C.
After overnight incubation of the ELISA assay plates at 4° C., unbound Aβ peptides were removed thorough (4×100 μL) washes with Wash Buffer.

Row | Compound | IC50 [µM]
1 | COc1cc(C(=O)NCCc2ccc(Cl)cc2)ccc1-n1cnc(C)c1 [Example 103, N-[2-(4-chlorophenyl)ethyl]-3-methoxy-4-(4-methyl-1H-imidazol-1-yl)benzamide] | 0.698

Same assay, conditions: Homo sapiens, CHO, read-out: Aβ 42 IC50, Geometric mean of 2-8 determinations; human WT-APP overexpressing CHO cells

Row | Compound | IC50 [µM]
2 | COc1cc(C(=O)N2CC[C@H](Oc3ccccc3C(F)(F)F)C2)ccc1-n1cnc(C)c1 [Example 34, 1-[2-methoxy-4-({(3S)-3-[2-(trifluoro-methyl)phenoxy]pyrrolidin-1-yl}carbonyl)phenyl]-4-methyl-1H-imidazole, formic acid salt] | 0.297
3 | COc1cc(C(=O)N2CCCC(Oc3ccccc3C(C)C)C2)ccc1-n1cnc(C)c1 (stereo not shown) [Example 85, 3-(2-isopropylphenoxy)-1-[3-methoxy-4-(4-methyl-1H-imidazol-1-yl)benzoyl]piperidine] | 0.533
4 | COc1cc(C(=O)NCCCCc2ccccc2)ccc1-n1cnc(C)c1 [Example 61, 3-methoxy-4-(4-methyl-1H-imidazol-1-yl)-N-(4-phenyl-butyl)benzamide] | 0.356
5 | COc1cc(C(=O)N2CCC(COc3ccccc3C(F)(F)F)C2)ccc1-n1cnc(C)c1 (stereo not shown) [Example 132, 1-{2-methoxy-4-[(3-{[2-(tri-fluoromethyl)phenoxy]methyl}pyrrolidin-1-yl)carbonyl]phenyl}-4-methyl-1H-imidazole] | 0.472
6 | COc1cc(C(=O)NCc2ccc(F)cc2Cl)ccc1-n1cnc(C)c1 [Example 76, N-(2-chloro-4-fluorobenzyl)-3-methoxy-4-(4-methyl-1H-imidazol-1-yl)benzamide] | 0.476
7 | COc1cc(C(=O)N[C@@H]2COC[C@@H]2Oc2ccc(Br)cc2)ccc1-n1cnc(C)c1 [Example 48, N-[(3R,4R)-4-(4-bromophenoxy)-tetrahydro-furan-3-yl]-3-methoxy-4-(4-methylimidazol-1-yl)benzamide] | 1.74
8 | CCOc1cc(C)c(CN(C(=O)c2ccc(-n3cnc(C)c3)c(OC)c2)C2CC2)cc1C(C)C [Example 124, N-cyclopropyl-N-(4-ethoxy-5-isopropyl-2-methylbenzyl)-3-methoxy-4-(4-methyl-1H-imidazol-1-yl)benzamide] | 0.114
9 | COc1cc(C(=O)NC2COc3ccc(C(F)(F)F)cc32)ccc1-n1cnc(C)c1 (stereo not shown) [Example 130, 3-methoxy-4-(4-methyl-1H-imidazol-1-yl)-N-[5-(trifluoro-methyl)-2,3-dihydro-1-benzofuran-3-yl]benzamide] | 0.666
10 | COc1cc(C(=O)N2CC(COc3cccc(C(F)(F)F)c3)C2)ccc1-n1cnc(C)c1 [Example 133, 1-{2-methoxy-4-[(3-{[3-(trifluoromethyl)phenoxy]methyl}azetidin-1-yl)carbonyl]phenyl}-4-methyl-1H-imidazole] | 0.496

Same assay, conditions: Homo sapiens, CHO, read-out: Aβ 42 IC50, Geometric mean of at least 2 determinations; human WT-APP overexpressing CHO cells

Row | Compound | IC50 [µM]
11 | CCc1cc(F)ccc1OCC1CN(C(=O)c2ccc(-n3cnc(C)c3)c(OC)c2)C1 [Example 138, 1-[4-({3-[(2-ethyl-4-fluorophenoxy)methyl]azetidin-1-yl}carbonyl)-2-methoxyphenyl]-4-methyl-1H-imidazole trifluoroacetate salt] | 0.537
12 | COc1cc(C(=O)N2CC(COc3cccc4ccccc34)C2)ccc1-n1cnc(C)c1 [Example 135, 1-[2-methoxy-4-({3-[(1-naphthyloxy)methyl]azetidin-1-yl}carbonyl)phenyl]-4-methyl-1H-imidazole trifluoroacetate salt] | 0.111

Same assay, conditions: Homo sapiens, CHO, read-out: Aβ 42 IC50, Single IC50 determination; human WT-APP overexpressing CHO cells

Row | Compound | IC50 [µM]
13 | COc1cc(C(=O)NCC2C3CC4CC(C3)CC2C4)ccc1-n1cnc(C)c1 (stereo not shown) [Example 40, N-(adamantan-2-ylmethyl)-3-methoxy-4-(4-methyl-1H-imidazol-1-yl)benzamide] | 0.185

Same assay, conditions: Homo sapiens, CHO, read-out: GM Aβ 42B IC50, Geometric Mean of 2-8 Determinations; human WT-APP overexpressing CHO cells

Row | Compound | IC50 [µM]
14 | COc1cc(C(=O)NCCc2cccc(Cl)c2)ccc1-n1cnc(C)n1 [Example 6, N-[2-(3-chlorophenyl)ethyl]-3-methoxy-4-(3-methyl-[1,2,4]triazol-1-yl)benzamide] | 4.21
15 | COc1cc(C(=O)NCc2nnc(-c3cccc(Cl)c3)o2)ccc1-n1cnc(C)c1 [Example 5, N-{[5-(3-chlorophenyl)-1,3,4-oxadiazol-2-yl]methyl}-3-methoxy-4-(4-methyl-1H-imidazol-1-yl)benzamide] | 1.46

Same assay, conditions: read-out: Aβ 42 IC50

Row | Compound | IC50 [µM]
16 | COc1cc(C(=O)N[C@@H](C)c2ccc(C)cc2)ccc1-n1cnc(C)c1 [Example 110, 3-methoxy-4-(4-methyl-1H-imidazol-1-yl)-N-[(1S)-1-(4-methylphenyl)ethyl) benzamide] | 0.747

Same assay, conditions: read-out: Aβ 42 IC50; Geometric mean of 2-8 determinations; human WT-APP overexpressing CHO cells

Row | Compound | IC50 [µM]
17 | COc1cc(C(=O)NCC2(c3ccccc3)CCCC2)ccc1-n1cnc(C)c1 [Example 27, 3-methoxy-4-(4-methyl-1H-imidazol-1-yl)-N-[(1-phenyl-cyclopentyl)methyl] benzamide] | 0.175
18 | COc1cc(C(=O)NCc2cnc(-c3ccccc3)s2)ccc1-n1cnc(C)c1 [Example 16, 3-methoxy-4-(4-methyl-1H-imidazol-1-yl)-N-[(2-phenyl-1,3-thiazol-5-yl)methyl] benzamide] | 0.283
19 | COc1cc(C(=O)NCc2ccc(C(=O)c3ccccc3)cc2)ccc1-n1cnc(C)c1 [Example 43, N-(4-benzoyl-benzyl)-3-methoxy-4-(4-methyl-1H-imidazol-1-yl) benzamide] | 0.582
20 | COc1cc(C(=O)NC2(c3ccc(Cl)cc3)CC2)ccc1-n1cnc(C)c1 [Example 78, N-[1-(4-chlorophenyl)cyclopropyl]-3-methoxy-4-(4-methyl-1H-imidazol-1-yl) benzamide] | 0.488
21 | COc1cc(C(=O)NCc2ccc(C(F)(F)F)c(F)c2)ccc1-n1cnc(C)c1 [Example 83, N-[3-fluoro-4-(trifluoromethyl)benzyl]-3-methoxy-4-(4-methyl-1H-imidazol-1-yl) benzamide] | 0.514
22 | COc1cc(C(=O)NCC2CCc3ccccc3C2)ccc1-n1cnc(C)c1 (stereo not shown) [Example 113, 3-methoxy-4-(4-methyl-1H-imidazol-1-yl)-N-(1,2,3,4-tetrahydro-naphthalen-2-ylmethyl) benzamide] | 0.784
23 | COc1cc(C(=O)NCC2(c3ccc(C(F)(F)F)cc3)CCOCC2)ccc1-n1cnc(C)c1 [Example 28, 3-methoxy-4-(4-methyl-1H-imidazol-1-yl)-N-({4-[4-(tri-fluoromethyl)phenyl]tetrahydro-2H-pyran-4-yl}methyl) benzamide] | 0.188
24 | N-[2-(4-fluoro- phenyl)-1,1- dimethylethyl]- 3-methoxy-4- (4-methyl-1H- imidazol-1-yl) benzamide [Example 37] | 0.519
25 | COc1cc(C(=O)NC(C)COc2c(C)cccc2C)ccc1-n1cnc(C)c1 (stereo not shown) [Example 56, N-[2-(2,6-dimethyl-phenoxy)-1-methylethyl]-3-methoxy-4-(4-methyl-1H-imidazol-1-yl) benzamide] | 0.337
26 | COc1cc(C(=O)NCc2csc(-c3cccs3)n2)ccc1-n1cnc(C)c1 [Example 44, 3-methoxy-4-(4-methyl-1H-imidazol-1-yl)-N-{[2-(2-thienyl)-1,3-thiazol-4-yl]methyl} benzamide] | 0.575
27 | COc1cc(C(=O)NC(C)CCc2ccccc2)ccc1-n1cnc(C)c1 (stereo not shown) [Example 100, 3-methoxy-4-(4-methyl-1H-imidazol-1-yl)-N-(1-methyl-3-phenylpropyl) benzamide] | 0.667
28 | COc1cc(C(=O)NCc2ccc(-c3ccc(Cl)cc3)s2)ccc1-n1cnc(C)c1 [Example 49, N-{[5-(4-chlorophenyl)-2-thienyl]methyl}-3-methoxy-4-(4-methyl-1H-imidazol-1-yl) benzamide] | 0.137
29 | N-[3-(3- chlorophenyl) propyl]-3- methoxy-4-(4- methyl-1H- imidazol-1-yl) benzamide [Example 46] | 0.579
30 | COc1cc(C(=O)NCc2cc(F)cc(C(F)(F)F)c2)ccc1-n1cnc(C)c1 [Example 62, N-[3-fluoro-5-(trifluoromethyl)benzyl]-3-methoxy-4-(4-methyl-1H-imidazol-1-yl) benzamide] | 0.369
31 | COc1cc(C(=O)NCC(CO)c2cccc(C(F)(F)F)c2)ccc1-n1cnc(C)c1 (stereo not shown) [Example 35, N-{3-hydroxy-2-[3-(trifluoro-methyl)phenyl]propyl}-3-methoxy-4-(4-methyl-1H-imidazol-1-yl) benzamide] | 0.91
32 | COc1cc(C(=O)N[C@@H]2CCC[C@@H]2Cc2ccccc2)ccc1-n1cnc(C)c1 [Example 72, N-[(1R,2R)-2-benzylcyclopentyl]-3-methoxy-4-(4-methyl-1H-imidazol-1-yl) benzamide] | 0.442
33 | COc1cc(C(=O)N(C)Cc2cccc3ccccc23)ccc1-n1cnc(C)c1 [Example 118, 3-methoxy-N-methyl-4-(4-methyl-1H-imidazol-1-yl)-N-(1-naphthylmethyl) benzamide] | 0.837
34 | COc1cc(C(=O)NCc2noc3ccc(Cl)cc23)ccc1-n1cnc(C)c1 [Example 17, N-[(5-chloro-1,2-benz-isoxazol-3-yl)methyl]-3-methoxy-4-(4-methyl-1H-imidazol-1-yl) benzamide] | 0.371
35 | N-{[3-(3- chlorophenyl)- 4,5-dihydro- isoxazol-5-yl] methyl}-3- methoxy-4- (4-methyl-1H- imidazol-1-yl) benzamide [Example 12] | 1.31
36 | COc1cc(C(=O)N[C@H](c2ccccc2)[C@@H](O)c2ccccc2)ccc1-n1cnc(C)c1 [Example 80, N-[(1R,2S)-2-hydroxy-1,2-diphenylethyl]-3-methoxy-4-(4-methyl-1H-imidazol-1-yl) benzamide] | 0.501

Same assay, conditions: read-out: Aβ 42 IC50; Single IC50 determination; human WT-APP overexpressing CHO cells

Row | Compound | IC50 [µM]
37 | COc1cc(C(=O)NCC2(c3ccc(Br)cc3)CC2)ccc1-n1cnc(C)c1 [Example 39, N-{[1-(4-bromophenyl)cyclopropyl]methyl}-3-methoxy-4-(4-methyl-1H-imidazol-1-yl) benzamide] | 0.248
